Laboratory results taken from patent US20240262826A1, “WILD TYPE KIT INHIBITORS” (Blueprint Medicines Corporation, priority 2022, published 2024).

Experiments:
[1] = target: human P-glycoprotein (P-gp, MDR1) (Homo sapiens (Human), UniProt P08183); assay: MDCK-MDR1 cell monolayer drug transport assay (P-gp efflux ratio); assay type: in vitro ADME; conditions: pH 7.4, MDCK-MDR1 cells, 1 uM concentration of compound, read-out: Pgp Efflux Ratio, 1 uM
How it was run: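 P-gp substrate potential tested in MDCK-MDR1 monolayers on Transwell supports, cultured 4-8 days; monolayers with TEER <42 ohms·cm2 discarded. Transport run in HBSS (10 mM HEPES, pH 7.4) at 37° C with compound working solution at 1 μM.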

wild type c-kit = wild type c-kit (Homo sapiens (Human), UniProt P10721); assay: PathScan phospho c-kit (Tyr719) sandwich ELISA in SCF-stimulated M-07e cells (pKIT assay); assay type: cell-based; conditions: ELISA assay (values not marked *)
Sequence of wild type c-kit (P10721 26-976): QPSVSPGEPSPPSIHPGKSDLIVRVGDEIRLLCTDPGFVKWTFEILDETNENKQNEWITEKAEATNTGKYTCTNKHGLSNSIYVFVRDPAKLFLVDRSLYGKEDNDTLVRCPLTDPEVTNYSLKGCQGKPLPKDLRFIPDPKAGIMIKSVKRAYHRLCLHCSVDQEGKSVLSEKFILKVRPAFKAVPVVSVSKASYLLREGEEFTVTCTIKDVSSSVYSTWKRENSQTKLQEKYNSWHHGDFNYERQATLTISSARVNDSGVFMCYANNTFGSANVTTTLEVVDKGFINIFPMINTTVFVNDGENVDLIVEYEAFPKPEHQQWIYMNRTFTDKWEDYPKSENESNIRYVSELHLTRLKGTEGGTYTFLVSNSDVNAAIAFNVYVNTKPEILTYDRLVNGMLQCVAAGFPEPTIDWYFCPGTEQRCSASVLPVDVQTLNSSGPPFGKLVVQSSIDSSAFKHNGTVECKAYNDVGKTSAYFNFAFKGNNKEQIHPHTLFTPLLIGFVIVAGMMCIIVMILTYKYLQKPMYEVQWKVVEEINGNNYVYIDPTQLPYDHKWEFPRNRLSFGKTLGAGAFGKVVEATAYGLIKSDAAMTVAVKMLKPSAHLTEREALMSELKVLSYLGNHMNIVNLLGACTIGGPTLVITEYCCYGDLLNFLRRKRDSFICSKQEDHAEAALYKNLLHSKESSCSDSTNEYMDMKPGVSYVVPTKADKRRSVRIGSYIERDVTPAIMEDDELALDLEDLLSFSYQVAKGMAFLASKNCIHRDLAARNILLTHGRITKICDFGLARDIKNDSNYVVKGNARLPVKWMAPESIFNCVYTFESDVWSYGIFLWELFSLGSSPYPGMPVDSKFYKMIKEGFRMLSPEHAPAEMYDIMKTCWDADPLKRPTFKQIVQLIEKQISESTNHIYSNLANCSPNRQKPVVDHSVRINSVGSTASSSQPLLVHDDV
How it was run: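 Tyr719-phosphorylated c-kit was measured by colorimetric (TMB) sandwich ELISA in lysates of M-07e cells. Cells were starved 4 h without serum or GM-CSF, dosed 60 min at 37 °C with compound (8 points, duplicate, 0.25% DMSO), and stimulated 10 min with human SCF (500 ng/mL as added). IC50 values came from 4-parameter logistic regression.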

Sequence of human P-glycoprotein (P-gp, MDR1) (P08183 whole entry): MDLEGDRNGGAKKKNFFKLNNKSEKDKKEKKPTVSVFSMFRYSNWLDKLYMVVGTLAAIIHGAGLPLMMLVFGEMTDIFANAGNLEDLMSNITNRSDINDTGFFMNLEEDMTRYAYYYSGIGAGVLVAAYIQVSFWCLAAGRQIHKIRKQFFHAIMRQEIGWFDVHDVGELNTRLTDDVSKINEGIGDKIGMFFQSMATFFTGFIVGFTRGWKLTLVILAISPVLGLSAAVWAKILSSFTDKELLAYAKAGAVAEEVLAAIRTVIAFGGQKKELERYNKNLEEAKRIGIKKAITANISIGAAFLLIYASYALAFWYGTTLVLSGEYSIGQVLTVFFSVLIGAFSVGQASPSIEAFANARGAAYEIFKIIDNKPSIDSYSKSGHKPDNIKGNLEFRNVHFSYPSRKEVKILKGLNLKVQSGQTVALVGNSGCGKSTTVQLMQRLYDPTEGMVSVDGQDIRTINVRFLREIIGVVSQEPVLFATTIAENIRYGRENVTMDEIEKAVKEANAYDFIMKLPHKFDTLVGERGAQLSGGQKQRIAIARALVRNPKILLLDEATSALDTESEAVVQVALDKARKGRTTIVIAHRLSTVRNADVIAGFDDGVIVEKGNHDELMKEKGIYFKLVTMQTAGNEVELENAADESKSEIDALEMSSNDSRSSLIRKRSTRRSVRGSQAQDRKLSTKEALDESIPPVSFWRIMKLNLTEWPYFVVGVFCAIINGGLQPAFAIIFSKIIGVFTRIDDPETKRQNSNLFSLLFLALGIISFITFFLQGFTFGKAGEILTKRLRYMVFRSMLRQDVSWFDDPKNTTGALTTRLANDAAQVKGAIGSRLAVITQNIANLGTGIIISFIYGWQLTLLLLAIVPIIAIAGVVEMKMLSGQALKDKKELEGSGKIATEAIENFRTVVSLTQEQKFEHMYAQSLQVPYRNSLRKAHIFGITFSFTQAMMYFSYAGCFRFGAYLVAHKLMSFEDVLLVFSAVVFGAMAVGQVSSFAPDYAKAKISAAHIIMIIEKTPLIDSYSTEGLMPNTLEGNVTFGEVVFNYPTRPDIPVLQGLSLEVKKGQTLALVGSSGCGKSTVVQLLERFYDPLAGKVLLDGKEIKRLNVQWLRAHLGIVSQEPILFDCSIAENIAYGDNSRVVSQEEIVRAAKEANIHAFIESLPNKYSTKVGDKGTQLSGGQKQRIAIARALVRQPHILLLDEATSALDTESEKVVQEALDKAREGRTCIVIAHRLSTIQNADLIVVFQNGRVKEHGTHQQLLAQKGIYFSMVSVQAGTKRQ

efflux ratio at 2 h, 1 µM [1] | IC50 (wild type c-kit) [nM] | Compound
4.3 | 6.9 | Cc1nnn(-c2ccc(C)c(NC(=O)c3cnn4ccc(-c5cnn(CC(C)(C)O)c5)cc34)c2)n1 [Example 209, 5-(1-(2-hydroxy-2-methylpropyl)-1H-pyrazol-4-yl)-N-(2-methyl-5-(5-methyl-2H-tetrazol-2-yl)phenyl)pyrazolo[1,5-a]pyridine-3-carboxamide]
13.5 | 0.1 | COC[C@@H](O)Cn1cc(-c2ccn3ncc(C(=O)Nc4cc(-c5nnn(C6CC6)n5)ccc4C)c3c2)c(C2CC2)n1 [Example 243, (S)-5-(3-cyclopropyl-1-(2-hydroxy-3-methoxypropyl)-1H-pyrazol-4-yl)-N-(5-(2-cyclopropyl-2H-tetrazol-5-yl)-2-methylphenyl)pyrazolo[1,5-a]pyridine-3-carboxamide]
10.9 | 1.5 | Cc1ccc(-c2nnn(C)n2)cc1NC(=O)c1cnn2ccc(-c3cnn(C[C@@H](C)O)c3)cc12 (mixture of isomers) [Example 53, (R)-5-(1-(2-hydroxypropyl)-1H-pyrazol-4-yl)-N-(2-methyl-5-(2-methyl-2H-tetrazol-5-yl)phenyl)pyrazolo[1,5-a]pyridine-3-carboxamide and (S)-5-(1-(2-hydroxypropyl)-1H-pyrazol-4-yl)-N-(2-methyl-5-(2-methyl-2H-tetrazol-5-yl)phenyl)pyrazolo[1,5-a]pyridine-3-carboxamide]
16.4 | 3.2 | Cc1ccc(-c2nnn(C3CC(F)(F)C3)n2)cc1NC(=O)c1cnn2ccc(N3CCC(C)(O)CC3)cc12 [Example 61, N-(5-(2-(3,3-difluorocyclobutyl)-2H-tetrazol-5-yl)-2-methylphenyl)-5-(4-hydroxy-4-methylpiperidin-1-yl)pyrazolo[1,5-a]pyridine-3-carboxamide]
5.5 | 27.4 | Cc1nnn(-c2ccc(C)c(NC(=O)c3cnn4ccc(-c5cnn(CCO)c5)cc34)c2)n1 [Example 51, 5-(1-(2-hydroxyethyl)-1H-pyrazol-4-yl)-N-(2-methyl-5-(5-methyl-2H-tetrazol-2-yl)phenyl)pyrazolo[1,5-a]pyridine-3-carboxamide]

Second part, the compound before the results:

Compound | efflux ratio at 2 h, 1 µM [1] | IC50 (wild type c-kit) [nM]
COC[C@@H](O)Cn1ncc(-c2ccn3ncc(C(=O)Nc4cc(-c5nnn(C6CC6)n5)ccc4Cl)c3c2)c1C [Example 248, (S)-N-(2-chloro-5-(2-cyclopropyl-2H-tetrazol-5-yl)phenyl)-5-(1-(2-hydroxy-3-methoxypropyl)-5-methyl-1H-pyrazol-4-yl)pyrazolo[1,5-a]pyridine-3-carboxamide] | 3.5 | 0.6
COCCOc1ccc2c(C(=O)Nc3cc(-c4nnn(C5CN(C(=O)OC)C5)n4)ccc3C)cnn2c1 [Example 143, methyl 3-(5-(3-(6-(2-methoxyethoxy)pyrazolo[1,5-a]pyridine-3-carboxamido)-4-methylphenyl)-2H-tetrazol-2-yl)azetidine-1-carboxylate] | 4 | 10.5
Cc1ccc(-c2nnn(C3CN(S(C)(=O)=O)C3)n2)cc1NC(=O)c1cnn2ccccc12 [Example 172, N-(2-methyl-5-(2-(1-(methylsulfonyl)azetidin-3-yl)-2H-tetrazol-5-yl)phenyl)pyrazolo[1,5-a]pyridine-3-carboxamide] | 5.5 | 35.4
COC(=O)N1CC(n2nnc(-c3ccc(C)c(NC(=O)c4cnn5ccc(N6CC[C@@H](N(C)C)C6)cc45)c3)n2)C1 [Example 97, methyl (R)-3-(5-(3-(5-(3-(dimethylamino)pyrrolidin-1-yl)pyrazolo[1,5-a]pyridine-3-carboxamido)-4-methylphenyl)-2H-tetrazol-2-yl)azetidine-1-carboxylate] | 23.2 | 112
COC(=O)N1CC(n2nnc(-c3ccc(C)c(NC(=O)c4cnn5ccc(NCC(C)(C)O)cc45)c3)n2)C1 [Example 89, methyl 3-(5-(3-(5-((2-hydroxy-2-methylpropyl)amino)pyrazolo[1,5-a]pyridine-3-carboxamido)-4-methylphenyl)-2H-tetrazol-2-yl)azetidine-1-carboxylate] | 43.1 | 71
COC(=O)N1CC(n2nnc(-c3ccc(C)c(NC(=O)c4cnn5ccc(NCCOC(C)(C)C)cc45)c3)n2)C1 [Example 93, methyl 3-(5-(3-(5-((2-(tert-butoxy)ethyl)amino)pyrazolo[1,5-a]pyridine-3-carboxamido)-4-methylphenyl)-2H-tetrazol-2-yl)azetidine-1-carboxylate] | 11.4 | 29
COC[C@@H]1CCN1c1ccn2ncc(C(=O)Nc3cc(-c4nnn(C5CN(C(=O)OC)C5)n4)ccc3C)c2c1 (stereo in doubt) [Example 85, methyl (S)-3-(5-(3-(5-(2-(methoxymethyl)azetidin-1-yl)pyrazolo[1,5-a]pyridine-3-carboxamido)-4-methylphenyl)-2H-tetrazol-2-yl)azetidine-1-carboxylate or methyl (R)-3-(5-(3-(5-(2-(methoxymethyl)azetidin-1-yl)pyrazolo[1,5-a]pyridine-3-carboxamido)-4-methylphenyl)-2H-tetrazol-2-yl)azetidine-1-carboxylate] | 7.1 | 25
Cc1cc(F)c(-c2nnn([C@H]3C[C@@H](C(F)(F)F)C3)n2)cc1NC(=O)c1cnn2ccc(N3CC(C)(O)C3)cc12 [Example 64, N-(4-fluoro-2-methyl-5-(2-((1s,3s)-3-(trifluoromethyl)cyclobutyl)-2H-tetrazol-5-yl)phenyl)-5-(3-hydroxy-3-methylazetidin-1-yl)pyrazolo[1,5-a]pyridine-3-carboxamide] | 39.3 | 3.7
COC[C@@](C)(O)Cn1cc(-c2ccn3ncc(C(=O)Nc4cc(-c5nnn(C6CC6)n5)ccc4C)c3c2)cn1 (single isomer, unassigned) [Example 268, (S)-N-(5-(2-cyclopropyl-2H-tetrazol-5-yl)-2-methylphenyl)-5-(1-(2-hydroxy-3-methoxy-2-methylpropyl)-1H-pyrazol-4-yl)pyrazolo[1,5-a]pyridine-3-carboxamide or (R)-N-(5-(2-cyclopropyl-2H-tetrazol-5-yl)-2-methylphenyl)-5-(1-(2-hydroxy-3-methoxy-2-methylpropyl)-1H-pyrazol-4-yl)pyrazolo[1,5-a]pyridine-3-carboxamide] | 5.2 | 1.6
COCCNc1ccn2ncc(C(=O)Nc3cc(-c4nnn([C@H]5C[C@@H](C(F)(F)F)C5)n4)c(F)cc3C)c2c1 [Example 108, N-(4-fluoro-2-methyl-5-(2-((1s,3s)-3-(trifluoromethyl)cyclobutyl)-2H-tetrazol-5-yl)phenyl)-5-((2-methoxyethyl)amino)pyrazolo[1,5-a]pyridine-3-carboxamide] | 4 | 11.6
COCCOCCNc1ccn2ncc(C(=O)Nc3cc(-c4nnn(C5CN(C(=O)OC)C5)n4)ccc3C)c2c1 [Example 146, methyl 3-(5-(3-(5-((2-(2-methoxyethoxy)ethyl)amino)pyrazolo[1,5-a]pyridine-3-carboxamido)-4-methylphenyl)-2H-tetrazol-2-yl)azetidine-1-carboxylate] | 15.4 | 88.8
